Read-outs that look alike come from different tables or passages of the source.
Assays:
[1] = tested on: Jurkat (Acute T Cell Leukemia); test: Differential nuclear staining; type: cell-based; conditions: Homo sapiens, Jurkat
[2] = Differential nuclear staining; type: cell-based; conditions: human
[3] = tested on: human cervix carcinoma cells (HeLa); test: Antiproliferative effect on HeLa cells; type: cell-based; conditions: read-out: IC50 HeLa
[4] = Differential nuclear staining; type: cell-based; conditions: human, Hs27 non-cancerous fibroblast cells
Jurkat cells [5] = test: Cell cycle analysis; type: cell-based, human
[6] = tested on: caspase-3 in Jurkat cells; test: Caspase-3 activation assay; type: cell-based, human; conditions: CC50 (2.36 μM) and CC100 (4.72 μM), 7 h, vs controls
Jurkat cells [7] = test: Annexin V-FITC/PI assay; type: cell-based, human; conditions: 7g at CC50 (2.36 μM) and CC100 (4.72 μM), vs vehicle control
Jurkat cells [8] = test: Mitochondrial depolarization assay; type: cell-based, human; conditions: JC-1, flow cytometry, 5 h
[9] = tested on: murine leukemia cells (L1210); test: Antiproliferative effect on L1210 cells; type: cell-based
[10] = tested on: L1210, CEM and HeLa cells; test: Cytotoxicity screening over L1210, CEM and HeLa; type: cell-based; conditions: read-out: IC50 (range over the cell lines tested), L1210, CEM and HeLa together
[11] = tested on: human T-lymphocyte cells (CEM); test: Antiproliferative effect on CEM cells; type: cell-based; conditions: read-out: IC50 CEM
[12] = tested on: CCRF-CEM (Acute Lymphoblastic leukemia); test: Differential nuclear staining; type: cell-based; conditions: Homo sapiens, CCRF-CEM, read-out: CC50 (death of 50% of the cells)
[13] = Differential nuclear staining; type: cell-based; conditions: human; remark: listed apart in the source
[14] = read-out: CC50 (death of 50% of the cells)
[15] = read-out: CC50 (range for compounds 7g and 8b)
[16] = cells treated with the CC50, 48 h
[17] = Mus musculus, L1210, read-out: IC50 L1210
[18] = read-out: IC50 L1210, L1210 cells, mean ± SEM (n=3)

SMILES	CC50 [1, 14] [µM]	CC50 [1, 15] [µM]	selectivity ratio [2]	IC50 ([3]; Homo sapiens, HeLa) [µM]	CC50 at 72 h [4] [µM]	IC50 [9, 17] [µM]	IC50 [10] [µM]	IC50 ([11]; Homo sapiens, CCRF-CEM) [µM]	CC50 [12] [µM]	selectivity ratio [13]	IC50 [9, 18] [µM]	further results
COc1ccc(Cc2nn3c(SC#N)c(-c4cc5ccccc5oc4=O)nc3s2)cc1 [Compound 7g, 2-(4-methoxybenzyl)-6-(2-oxo-2H-chromen-3-yl)imidazo[2,1-b][1,3,4]thiadiazol-5-yl thiocyanate]	2.36 ± 0.1	1.65 to 4.73	13.3	0.78 ± 0.13	31.4 ± 0.74	1.6 ± 0.2	0.78 to 1.6	0.79 ± 0.35	4.73 ± 0.22	6.65		sub-G0/G1 subpopulation (DNA fragmentation) (Jurkat cells [5]; 7g at CC50 (2.36 μM) and CC100 (4.72 μM), 48 h): increase in sub-G0/G1 subpopulation; cell population in G2-M phase (Jurkat cells [5]; 48 h): increase of the cell population in the G2-M phase; cell population in S phase (Jurkat cells [5]; [16]): increase of cell population in the S phase; cell subpopulation in G0-G1 phase (Jurkat cells [5]; [16]): decrease of cell subpopulation in the G0-G1 phase; caspase-3 activation [6]: induced statistically significant activation of caspase-3; phosphatidylserine externalization (Jurkat cells [7]): inducing phosphatidylserine externalization in a dose-response manner; mitochondrial membrane depolarization (Jurkat cells [8]): not causing mitochondrial membrane depolarization
COc1ccc(Cc2nn3c(C=O)c(-c4ccc(Cl)cc4)nc3s2)cc1 [Compound 8b, 6-(4-chlorophenyl)-2-(4-methoxybenzyl)imidazo[2,1-b][1,3,4]thiadiazole-5-carbaldehyde]	1.65 ± 0.19	1.65 to 4.73	1.43	1.3 ± 0.2	2.36 ± 0.03	1.1 ± 0.2	0.94 to 1.3	0.94 ± 0.12	3.62 ± 0.26	0.65		
COc1ccc(Cc2nn3cc(-c4cc5ccccc5oc4=O)nc3s2)cc1 [Compound 5h]											90 ± 24	IC50 ([3]; HeLa cells, mean ± SEM (n=3)): 70 ± 4 µM; IC50 ([11]; CEM cells, mean ± SEM (n=3)): 5 ± 3.3 µM
N[C@@H](Cc1ccc(N(CCCl)CCCl)cc1)C(=O)O [Melphalan, reference compound]								1.4 ± 0.4			2.13 ± 0.02	
c1ccc([C@H]2CN3CCSC3=N2)cc1 [Levamisole, reference compound]				> 250				> 250				
